From patent US20230141988A1, “PHARMACEUTICAL COMPOSITION FOR USE IN THE TREATMENT OF NEUROLOGICAL DISEASES” (Aclipse One Inc., priority 2020, published 2023)
Values joined by “and” are separate entries in the source; they are usually repeats but may differ in a detail not shown here. Identical values can stand only once. Like-named read-outs stand apart in the source and are kept apart here.

Legend:
[1] = mouse, in vivo
Experimental: (§1) 9 male C57BL/6J mice following administration of a single subcutaneous dose of 4.40 mg/kg. The vehicle for the subcutaneous formulation contained “0.1% sodium metabisulfite solution”.
(§2) Male C57BL/6J mice were purchased from Si Bei Fu Laboratory Animal Technology Co. Ltd (Beijing, China). The animals were about 8 weeks old with body weights of 20-30 g on the dosing date. The animals were housed in a 12-hour light/12-hour dark cycle environment and had free access to food and water. All animals were fasted overnight and fed after 4 hours collection.
(§3) For group 1, plasma samples were collected from dorsal metatarsal vein at each time point after subcutaneous administrations.
(§4) For plasma samples, about 30 μL or 300 μL of blood samples were collected from each animal via dorsal metatarsal vein or heart. These blood samples were placed into the tubes containing K2EDTA. And centrifugation at 3000 g for 10 minutes in a 4° C. centrifuge. The completion time from collection was less than 30 min. The stabilizing agent of ascorbic acid at 200 mg/mL was added in a proportion of 10% in plasma. The plasma samples were stored in a freezer at −75±15° C. prior to analysis. The completion time from collection was less than 60 min.
(§5) For brain and CSF samples, The animals were fully exsanguinated with a rising concentration of CO2 gas prior to CSF and brain collection.
(§6) For CSF collection, incision was made by scissors on the neck of the rats to expose the foramen magnum. A syringe fitted with a venoclysis needle was used to sample the CSF, the tip of the needle was inserted into the membrane of foramen magnum about 1-2 mm, and a negative pressure was applied by pulling a stopcock a small length of the syringe to extract CSF fluids into a tube. The stopcock was further actuated to until a sufficient amount of CSF was collected. There should be no blood in the CSF fluid. A stabilizing agent of ascorbic acid at 200 mg/mL was added in a proportion of 10% in CSF.
(§7) For brain collection. Brain samples were collected at an adopted time point, and washed 3 times with cold saline, then dried with clean gauze and put into the weighed tube, quick frozen in an ice box and kept at −75±15° C. All brain samples were weighted and homogenized with phosphate buffered saline (PBS) by brain weight (g) to PBS volume (mL) ratio 1:3 before analysis. The stabilizing agent of ascorbic acid at 200 mg/mL was added in a proportion of 10% in grain homogenate. The actual concentration was the detected value multiplied by the dilution factor. Brain samples were collected at designed time point, quickly homogenized and kept at −75±15° C.
(§8) Calibration standard working solutions were prepared at concentrations of 2, 5, 10, 20, 50, 100, 500, 1000, 5000 and 10000 ng/mL by serial dilution of the standard stock solution in 50% acetonitrile in water. Quality control working solutions at concentrations of 5, 10, 500 and 8000 ng/mL were prepared by serial dilution of the standard stock solution in 50% acetonitrile in water. These QC samples were prepared on the day of analysis in the same way as calibration standards.
(§9) For plasma and brain samples, 3 μL of each calibration standard working solution (2, 5, 10, 20, 50, 100, 500, 1000, 5000 and 10000 ng/mL) was added to 30 μL of the blank C57BL/6J mouse plasma or brain homogenate (with 10% 200 mg/mL ascorbic acid) to achieve calibration standards of 0.2-1000 ng/mL (0.2, 0.5, 1, 2, 5, 10, 50, 100, 500, 1000 ng/mL) in a total volume of 33 μL. Quality Control (QC) samples at 0.5 ng/mL (low-1), 1 ng/mL (low-2), 50 ng/mL (mid), 800 ng/mL (high) for plasma were prepared independently for those used for the calibration curves. These QC samples were prepared on the day of analysis in the same way as calibration standards.

[2] = male, SD, rat, in vivo, iv, 0.88 mg/kg, 1 h
Experimental: (§10) The vehicle for the IV, subcutaneous, PO and IN formulation contained “0.1% sodium metabisulfite solution”.
(§11) Male SD rats were purchased from Si Bei Fu Laboratory Animal Technology Co. Ltd (Beijing, China). The animals were about 8 weeks old with body weights of 200-300 g on the dosing date. The animals were housed in a 12-hour light/12-hour dark cycle environment and had free access to food and water. All animals were fasted overnight and fed after 4 hours collection.
(§12) Plasma samples were collected from jugular vein at each time point after IV, subcutaneous, PO and IN administrations.
(§13) About 200 μL of blood samples were collected from each animal via jugular vein. These blood samples were placed into the tubes containing K2EDTA. And centrifugation at 3000 g for 10 minutes in a 4° C. centrifuge. The completion time from collection was less than 30 min. The stabilizing agent of ascorbic acid at 200 mg/mL was added in a proportion of 10% in plasma. The plasma samples were stored in a freezer at −75±15° C. prior to analysis. The completion time from collection was less than 60 min.
(§14) Calibration standard working solutions were prepared at concentrations of 2, 5, 10, 20, 50, 100, 500, 1000, 5000 and 10000 ng/mL by serial dilution of the standard stock solution in 50% acetonitrile in water. Quality control working solutions at concentrations of 5, 10, 20, 500 and 8000 ng/mL were prepared by serial dilution of the standard stock solution in 50% acetonitrile in water. These QC samples were prepared on the day of analysis in the same way as calibration standards.
(§15) For plasma samples, 2 μL of each calibration standard working solution (2, 5, 10, 20, 50, 100, 500, 1000, 5000 and 10000 ng/mL) was added to 20 μL of the blank SD rat plasma (with 10% 200 mg/mL ascorbic acid) to achieve calibration standards of 0.2-1000 ng/mL (0.2, 0.5, 1, 2, 5, 10, 50, 100, 500, 1000 ng/mL) in a total volume of 22 μL. Quality Control (QC) samples at 0.5 ng/mL (low-1), 1 ng/mL (low-2) and 2 ng/mL (low-3), 50 ng/mL (mid), 800 ng/mL (high) for plasma were prepared independently for those used for the calibration curves. These QC samples were prepared on the day of analysis in the same way as calibration standards. The total volumes of 22 μL of standards, 22 μL of QC samples and 22 μL of unknown samples (20 μL of unknown plasma (with 10% 200 mg/mL ascorbic acid) with 2 μL 50% acetonitrile) were added to 200 μL of acetonitrile containing IS to precipitate proteins. Then the samples were vortexed for 30 sec. After centrifugation at 4° C., 4700 rpm for 30 min, and supernatant was diluted 2 times with water, 10 μL of the diluted supernatant was injected into the LC-MS/MS system for quantitative analysis.
All the samples were processed on ice.
(§16) The LC-MS/MS system consisted of two Shimadzu LC-30AD pumps, a DGU-20A5R degasser, a Rack changer II and LCMS-8060 LC/MS/MS instrument mass spectrometer.
(§17) OD-3R Particle size 3 μm 4.6 mm×150 mm column at room temperature. The mobile phase was composed of A: Water (5 mM Ammonium Acetate); B: Ethanol (5 mM Ammonium Acetate). The flow rate was 0.5 mL/min. The injection volume was 10 μL.
(§18) A multiple reaction monitoring (MRM) method was selected for quantitative analysis. […] The instrument parameters were set as follows: ion spray voltage: 8060; heating gas flow: 10 L/min; interface temperature: 250° C.; DL temperature: 220° C.; heat block temperature: 400° C.; drying gas flow: 10 L/min.
(§19) Data acquisition was performed by Lab Solutions version 5.89 Software (Shimadzu). All concentration data was reported with 3 significant figures. Data statistics were performed using Excel 2010 software.
(§20) The linear trapezoidal algorithm was used for AUC calculation.

in vivo [3] = settings: male, C57BL/6J, mouse
Experimental: as §1, §2, §3, §4, §5, §6, §7, §8, §9

in vivo [4] = settings: male, SD, rat, iv, 0.88 mg/kg
Experimental: as §10, §11, §12, §13, §14, §15
All the samples were processed on ice.
as §16, §17, §18, §19, §20

[5] = Pharmacokinetic and brain penetration study, single subcutaneous dose, male C57BL/6J mouse (plasma, CSF, brain); settings: in vivo, sc, 0.0367 mg/kg
Experimental: as §1, §2, §3, §4, §5, §6, §7, §8, §9

[6] = Solubility in aqueous media / aqueous buffer solutions; type: physicochemical; settings: hydrochloride salt, aqueous buffer solutions

**Q.** Which Tmax ([1]; male, C57BL/6J, sc, 0.0367 mg/kg) does the source give for `CN1CCc2cccc3c2[C@H]1Cc1ccc(O)c(O)c1-3` here?
**A.** Its Tmax is 11.7 min.

**Q.** What about the plasma concentration [1] of the same compound?
**A.** The plasma concentration was “BLOQ”.

**Q.** What about the plasma concentration [2] of the same compound?
**A.** Its plasma concentration is 0.207 ng/mL.

**Q.** And the concentration at […] (in vivo [3]; 0.0367 mg/kg, plasma concentration)?
**A.** Its concentration at […] is 10.1 ng/mL.

**Q.** What about the concentration at 0.5 h (in vivo [3]; brain concentration, Conc. (ng/g)) of the same compound?
**A.** Its concentration at 0.5 h is 38 ng/g.

**Q.** And the concentration at 0.5 h (in vivo [3]; brain concentration, Conc. (ng/mL))?
**A.** Its concentration at 0.5 h is 7.6 ng/mL.

**Q.** And the concentration at 0.5 h (in vivo [3]; brain concentration, Mean)?
**A.** Its concentration at 0.5 h is 39.6 ng/g.

**Q.** What about the concentration at […] (in vivo [3]; brain concentration, Mean) of the same compound?
**A.** Its concentration at […] is 48.4 ng/g.

**Q.** What about the concentration at 0.5 h (in vivo [3]; plasma concentration) of the same compound?
**A.** The concentration at 0.5 h was 5.06 ng/mL.

**Q.** And the concentration at 1 h (in vivo [3]; plasma concentration)?
**A.** Its concentration at 1 h is 1.82 ng/mL.

**Q.** What about the concentration at […] (in vivo [3]; plasma concentration) of the same compound?
**A.** The concentration at […] was 7.46 ng/mL and 8.5 ng/mL.

**Q.** And the concentration at 0.5 h (in vivo [3]; plasma concentration, Mean)?
**A.** The concentration at 0.5 h was 5.15 ng/mL.

**Q.** And the concentration at 1 h (in vivo [3]; plasma concentration, Mean)?
**A.** The concentration at 1 h was 1.65 ng/mL.

**Q.** What about the concentration at […] (in vivo [3]; plasma concentration, Mean) of the same compound?
**A.** Its concentration at […] is 6.5 ng/mL and 8.16 ng/mL.

**Q.** What about the AUC(0-t) (in vivo [3]; sc, 0.0367 mg/kg, AUClast) of the same compound?
**A.** The AUC(0-t) was 5.1 ng·h/mL.

**Q.** What about the AUC(0-inf) (in vivo [3]; sc, 0.0367 mg/kg, AUC∞) of the same compound?
**A.** Its AUC(0-inf) is 5.99 ng·h/mL.

**Q.** And the Cmax (in vivo [3]; sc, 0.0367 mg/kg, Cmax)?
**A.** The Cmax was 8.56 ng/mL.

**Q.** And the MRT inf (in vivo [3]; sc, 0.0367 mg/kg, MRTInf)?
**A.** The MRT inf was 32.5 min.

**Q.** And the concentration at 2 min (in vivo [4]; mean plasma concentration)?
**A.** The concentration at 2 min was 3.75 ng/mL.

**Q.** And the concentration at 0.5 h (in vivo [4]; mean plasma concentration)?
**A.** The concentration at 0.5 h was 0.559 ng/mL.

**Q.** What about the concentration at 1 h (in vivo [4]; mean plasma concentration) of the same compound?
**A.** Its concentration at 1 h is 0.232 ng/mL.

**Q.** And the concentration at 2 min (in vivo [4]; plasma concentration)?
**A.** Its concentration at 2 min is 3.85 ng/mL.

**Q.** What about the concentration at 0.5 h (in vivo [4]; plasma concentration) of the same compound?
**A.** The concentration at 0.5 h was 0.582 ng/mL.

**Q.** What about the concentration at 1 h (in vivo [4]; plasma concentration) of the same compound?
**A.** The concentration at 1 h was 0.257 ng/mL.

**Q.** What about the Cmax [5] of the same compound?
**A.** Its Cmax is 7.78 ng/mL.

**Q.** Which solubility [6] does the source give for `CN1CCc2cccc3c2[C@@H]1Cc1ccc(O)c(O)c1-3.Cl` here?
**A.** Its solubility is “low solubility”.
